In patent publication US12509424B2, “Compound and composition as PDGF receptor kinase inhibitor” (NIPPON SHINYAKU CO., LTD., priority 2019, dated 2025):
pIC50: −log10 of the molar value.

How the values were obtained:
[1] = target: TEL-PDGFRβ fusion gene transfected cells (Ba/F3); experiment: Suppression of proliferation of TEL-PDGFRβ fusion gene transfected Ba/F3 cells; format: cell-based, human; details: TEL-PDGFRβ expressing Ba/F3 cells, 72 hours, final concentration 0.1 to 10,000 nM; read-out: PDGFR β/BaF3 proliferation inhibition (IC50)
TEL-PDGFRβ fusion gene transfected cells (Ba/F3), sequence (P09619 33-1106 limits assumed, change not shown): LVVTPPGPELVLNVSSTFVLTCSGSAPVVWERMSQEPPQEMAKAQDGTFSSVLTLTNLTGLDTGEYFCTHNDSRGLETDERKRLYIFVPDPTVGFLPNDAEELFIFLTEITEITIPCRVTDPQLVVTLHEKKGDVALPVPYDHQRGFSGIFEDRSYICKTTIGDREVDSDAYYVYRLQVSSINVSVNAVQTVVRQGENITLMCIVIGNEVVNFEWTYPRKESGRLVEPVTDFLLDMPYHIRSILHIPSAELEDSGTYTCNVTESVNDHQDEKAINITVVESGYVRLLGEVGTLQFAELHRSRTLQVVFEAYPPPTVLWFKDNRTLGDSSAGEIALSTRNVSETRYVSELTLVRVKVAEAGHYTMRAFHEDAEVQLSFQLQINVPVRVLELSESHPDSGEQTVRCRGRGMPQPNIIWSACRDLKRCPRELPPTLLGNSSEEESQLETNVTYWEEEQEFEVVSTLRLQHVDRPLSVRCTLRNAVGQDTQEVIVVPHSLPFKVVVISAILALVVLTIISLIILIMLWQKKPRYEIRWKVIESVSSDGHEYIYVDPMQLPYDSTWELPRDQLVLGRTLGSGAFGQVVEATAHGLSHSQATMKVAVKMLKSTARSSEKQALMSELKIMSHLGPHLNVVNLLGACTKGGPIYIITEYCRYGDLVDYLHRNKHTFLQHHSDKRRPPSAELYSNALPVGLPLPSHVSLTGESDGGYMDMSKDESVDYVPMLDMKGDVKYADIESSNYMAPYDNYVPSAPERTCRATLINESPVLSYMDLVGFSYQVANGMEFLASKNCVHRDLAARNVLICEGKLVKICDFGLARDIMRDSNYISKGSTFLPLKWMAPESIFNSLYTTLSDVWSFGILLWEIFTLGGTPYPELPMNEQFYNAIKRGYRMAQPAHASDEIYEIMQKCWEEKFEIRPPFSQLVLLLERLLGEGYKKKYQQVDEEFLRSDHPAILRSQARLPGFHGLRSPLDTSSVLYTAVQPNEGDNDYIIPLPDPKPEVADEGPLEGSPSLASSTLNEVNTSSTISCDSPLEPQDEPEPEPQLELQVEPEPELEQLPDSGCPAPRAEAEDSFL
From the text: 2. Preparation of Test Substance
4. Analysis of Measurement Results

[2] = tested on: pulmonary arterial smooth muscle cells; experiment: Suppression of proliferation of pulmonary arterial smooth muscle cells (PDGF-BB stimulation, BrdU); format: cell-based; details: PASMC, 24 h; healthy human derived pulmonary arterial smooth muscle cells; human PDGF-BB 10 ng/mL stimulation; BrdU uptake after 1 day; test substance final concentration 3 to 10,000 nM; read-out: Human normal PASMC proliferation suppression (PDGF stimulation_IC50)
Procedure, shortened: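 Test compound (final 3 to 10,000 nM) was added together with BrdU and PDGF-BB (final 10 ng/mL) to healthy human pulmonary artery smooth muscle cells held a day in 0.1% FBS. Proliferation was read after 1 day as anti-BrdU-detected BrdU incorporation.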

PDGFR-β = PDGFR-β (Homo sapiens (Human), UniProt P09619); experiment: PDGFR-β tyrosine kinase inhibitory action (HTRF KinEASE-TK); format: biochemical; details: PDGFR-β enzyme 1 ng/μL, 30° C. for 30 minutes; read-out: PDGF-β IC50
PDGFR-β, sequence (P09619 33-1106): as the sequence (P09619 33-1106 limits assumed, change not shown) above
Procedure, shortened: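 Recombinant PDGFR-β at 1 ng/μL final with TK substrate-3-biotin in a substrate solution containing 0.6 μM ATP; buffer 50 mM HEPES pH 7.0, 5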

[3] = target: TEL-KIT fusion gene transfected cells (Ba/F3); experiment: Suppression of proliferation of TEL-KIT fusion gene transfected Ba/F3 cells; details: read-out: KIT/BaF3 proliferation inhibition (IC50); TEL-KIT expressing Ba/F3 cells, 72 hours, final concentration 0.1 to 10,000 nM;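 note: viable cells quantified via formazan from tetrazolium reduction, inhibition scaled with 0.1% DMSO control as 0% and medium-only blank as 100%, IC50 from two-parameter logistic fit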
TEL-KIT fusion gene transfected cells (Ba/F3), sequence (P10721 26-976 limits assumed, change not shown): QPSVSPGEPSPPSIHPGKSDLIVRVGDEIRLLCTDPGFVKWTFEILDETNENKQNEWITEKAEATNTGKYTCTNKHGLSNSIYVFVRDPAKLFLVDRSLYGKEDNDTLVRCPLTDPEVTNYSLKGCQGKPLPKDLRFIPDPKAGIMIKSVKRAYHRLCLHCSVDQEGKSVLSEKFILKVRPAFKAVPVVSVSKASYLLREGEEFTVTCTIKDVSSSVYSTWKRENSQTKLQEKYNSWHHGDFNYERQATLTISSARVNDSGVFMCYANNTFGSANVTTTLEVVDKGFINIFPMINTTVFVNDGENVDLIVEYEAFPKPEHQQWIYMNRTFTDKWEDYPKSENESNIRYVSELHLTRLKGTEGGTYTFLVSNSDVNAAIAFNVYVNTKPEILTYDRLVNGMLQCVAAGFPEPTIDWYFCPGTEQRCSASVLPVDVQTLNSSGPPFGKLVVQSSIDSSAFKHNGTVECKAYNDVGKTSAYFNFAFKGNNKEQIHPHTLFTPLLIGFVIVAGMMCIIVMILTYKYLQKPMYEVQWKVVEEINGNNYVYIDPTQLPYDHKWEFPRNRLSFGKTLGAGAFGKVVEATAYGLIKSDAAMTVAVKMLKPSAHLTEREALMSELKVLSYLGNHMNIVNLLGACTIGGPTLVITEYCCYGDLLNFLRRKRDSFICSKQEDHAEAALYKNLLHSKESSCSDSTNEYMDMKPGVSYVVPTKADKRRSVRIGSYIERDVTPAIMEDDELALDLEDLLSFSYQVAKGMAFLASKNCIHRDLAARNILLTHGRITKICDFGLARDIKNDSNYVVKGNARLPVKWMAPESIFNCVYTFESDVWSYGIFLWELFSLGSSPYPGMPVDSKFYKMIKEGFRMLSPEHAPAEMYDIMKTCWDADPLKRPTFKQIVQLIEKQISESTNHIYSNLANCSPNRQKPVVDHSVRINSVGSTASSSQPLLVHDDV

Structure (SMILES)	pIC50 [1]	pIC50 (PDGFR-β)	pIC50 [3]	pIC50 [2]
Cc1ccc(C(=O)N[C@H]2CCCC[C@@H]2O)cc1NC(=O)c1cncc(-c2ccc(C(F)(F)F)cc2F)c1 [Example 36, 5-[2-fluoro-4-(trifluoromethyl)phenyl]-N-(5-{[(1S,2S)-2-hydroxycyclohexyl]carbamoyl}-2-methylphenyl)pyridine-3-carboxamide]	7.60	6.89	5.46	7.04
Cc1ccc(C(=O)N[C@H]2CCCC[C@@H]2O)cc1NC(=O)c1cncc(-c2c(F)cccc2F)c1 [Example 37, 5-(2,6-difluorophenyl)-N-(5-{[(1S,2S)-2-hydroxycyclohexyl]carbamoyl}-2-methylphenyl)pyridine-3-carboxamide]	8.29	7.48	6.33	7.34
Cc1ccc(C(=O)N[C@H]2CCCC[C@@H]2O)cc1NC(=O)c1cnc(NC(C)(C)C)s1 [Example 38, 2-(tert-butylamino)-N-(5-{[(1S,2S)-2-hydroxycyclohexyl]carbamoyl}-2-methylphenyl)-1,3-thiazole-5-carboxamide]	8.14	7.10	5.92	6.68
Cc1ccc(C(=O)N[C@H]2CCCC[C@@H]2O)cc1NC(=O)c1cnc(NC2(C)CC2)s1 [Example 39, N-(5-{[(1S,2S)-2-hydroxycyclohexyl]carbamoyl}-2-methylphenyl)-2-[(1-methylcyclopropyl)amino]-1,3-thiazole-5-carboxamide]	7.89	7.00	6.00	6.82
Cc1ccc(C(=O)N[C@H]2CCCC[C@@H]2O)cc1NC(=O)c1cnc(NC2(C)CCC2)s1 [Example 40, N-(5-{[(1S,2S)-2-hydroxycyclohexyl]carbamoyl}-2-methylphenyl)-2-[(1-methylcyclobutyl)amino]-1,3-thiazole-5-carboxamide]	8.34	7.37	5.92	7.12
Cc1ccc(C(=O)N[C@H]2CCCC[C@@H]2O)cc1NC(=O)c1cncc(-c2cc(F)c(F)c(F)c2)c1 [Example 42, N-(5-{[(1S,2S)-2-hydroxycyclohexyl]carbamoyl}-2-methylphenyl)-5-(3,4,5-trifluorophenyl)pyridine-3-carboxamide]	7.39	6.64	5.10	7.02
Cc1ccc(C(=O)N[C@H]2CCCC[C@@H]2O)cc1NC(=O)c1cncc(-c2ccc(C3CC3)cc2)c1 [Example 43, 5-(4-cyclopropylphenyl)-N-(5-{[(1S,2S)-2-hydroxycyclohexyl]carbamoyl}-2-methylphenyl)pyridine-3-carboxamide]	7.77	7.64	6.19	7.14
Cc1ccc(C(=O)N[C@H]2CCCC[C@@H]2O)cc1NC(=O)c1cnc2sccn12 [Example 45, N-(5-{[(1S,2S)-2-hydroxycyclohexyl]carbamoyl}-2-methylphenyl)imidazo[2,1-b][1,3]thiazole-5-carboxamide]	9.10	7.82	7.04	7.25
O=C(N[C@H]1CCCC[C@@H]1O)c1ccc(Cl)c(C#Cc2cncc(Br)c2)c1 [Example 57, 3-[(5-bromopyridin-3-yl)ethynyl]-4-chloro-N-[(1S,2S)-2-hydroxycyclohexyl]benzamide]	6.36	7.29	5.16	6.38
Cc1ccc(C(=O)N[C@H]2CCCC[C@@H]2O)cc1C#Cc1cncc(Br)c1 [Example 61, 3-[(5-bromopyridin-3-yl)ethynyl]-N-[(1S,2S)-2-hydroxycyclohexyl]-4-methylbenzamide]	7.74	7.39	6.08	7.74
Cc1ccc(C(=O)N[C@H]2CCCC[C@@H]2O)cc1C#Cc1cncc(-c2ncccn2)c1 [Example 62, N-[(1S,2S)-2-hydroxycyclohexyl]-4-methyl-3-{[5-(pyrimidin-2-yl)pyridin-3-yl]ethynyl}benzamide]	8.77	8.19	7.06	7.47
Cc1ccc(C(=O)N[C@H]2CCCC[C@@H]2O)cc1C#Cc1cncc(-c2cnccn2)c1 [Example 63, N-[(1S,2S)-2-hydroxycyclohexyl]-4-methyl-3-{[5-(pyrazin-2-yl)pyridin-3-yl]ethynyl}benzamide]	9.10	7.82	6.62	8.00

Second part, led by results:

pIC50 [1]	pIC50 (PDGFR-β)	pIC50 [3]	Structure (SMILES)	pIC50 [2]
7.46	6.89	5.68	Cc1ccc(C(=O)N[C@H]2CCCC[C@@H]2O)cc1NC(=O)c1cnc(NCC(C)(C)C)s1 [Example 41, 2-[(2,2-dimethylpropyl)amino]-N-(5-{[(1S,2S)-2-hydroxycyclohexyl]carbamoyl}-2-methylphenyl)-1,3-thiazole-5-carboxamide]	6.68
7.68	6.72	6.03	O=C(Nc1cc(C(=O)N[C@H]2CCCC[C@@H]2O)ccc1Cl)c1cncc(OCC2CC2)c1 [Example 44, N-(2-chloro-5-{[(1S,2S)-2-hydroxycyclohexyl]carbamoyl}phenyl)-5-(cyclopropylmethoxy)pyridine-3-carboxamide]	6.85
7.77	7.11	6.39	Cc1c(F)cc(C(=O)N[C@H]2CCCC[C@@H]2O)cc1NC(=O)c1cncc(OCC2CC2)c1 [Example 46, 5-(cyclopropylmethoxy)-N-(3-fluoro-5-{[(1S,2S)-2-hydroxycyclohexyl]carbamoyl}-2-methylphenyl)pyridine-3-carboxamide]	6.43
7.12	6.41	5.15	Cc1ccc(C(=O)N[C@H]2CCCC[C@@H]2O)cc1NC(=O)c1cncc(OC2CC(F)(F)C2)c1 [Example 47, 5-[(3,3-difluorocyclobutyl)oxy]-N-(5-{[(1S,2S)-2-hydroxycyclohexyl]carbamoyl}-2-methylphenyl)pyridine-3-carboxamide]	6.46
7.80	6.92	6.19	Cc1c(F)cc(C(=O)N[C@H]2CCCC[C@@H]2O)cc1NC(=O)c1cnc(CC2CC2)s1 [Example 48, 2-(cyclopropylmethyl)-N-(3-fluoro-5-{[(1S,2S)-2-hydroxycyclohexyl]carbamoyl}-2-methylphenyl)-1,3-thiazole-5-carboxamide]	6.51
6.96	7.92	5.74	O=C(N[C@H]1CCCC[C@@H]1O)c1ccc(Cl)c(C#Cc2cncc(-c3ccccc3)c2)c1 [Example 58, 4-chloro-N-[(1S,2S)-2-hydroxycyclohexyl]-3-[(5-phenylpyridin-3-yl)ethynyl]benzamide]	7.24
7.57	6.68	6.30	Cc1cncc(C#Cc2cc(C(=O)N[C@H]3CCCC[C@@H]3O)ccc2C)c1 [Example 59, N-[(1S,2S)-2-hydroxycyclohexyl]-4-methyl-3-[(5-methylpyridin-3-yl)ethynyl]benzamide]	7.03
8.23	6.59	6.64	O=C(N[C@H]1CCCC[C@@H]1O)c1ccc(Cl)c(C#Cc2cncc(-c3ncccn3)c2)c1 [Example 64, 4-chloro-N-[(1S,2S)-2-hydroxycyclohexyl]-3-{[5-(pyrimidin-2-yl)pyridin-3-yl]ethynyl}benzamide]	7.04
